Reference: patent publication US20190388425A1, “SUBSTITUTED IMIDAZOPYRIDINPYRIMIDINES” (Bayer Pharma Aktiengesellschaft, priority 2017, published 2019)

Molecular target: T1, human full-length MKNK1 (Homo sapiens, UniProt Q9BUB5, T385D)
T1 construct: GST (N); purchased Carna Biosciences 02-145; host or cells: insect cells (baculovirus expression system)
Assay: MKNK1 kinase high ATP assay (TR-FRET)
Assay type: biochemical
Settings: TR-FRET, 2 mM ATP (high ATP), 15 min preincubation with enzyme, 30 min reaction at 22° C.; read-out: MKNK1 IC50
Protocol: MKNK1 Kinase High ATP Assay
MKNK1-inhibitory activity at high ATP of compounds of the present invention after their preincubation with MKNK1 was quantified employing the TR-FRET-based MKNK1 high ATP assay as described in the following paragraphs.
As substrate for the kinase reaction the biotinylated peptide biotin-Ahx-[…] (C-terminus in amide form) was used, which can be purchased e.g. from the company Biosyntan (Berlin-Buch, Germany).
For the assay 50 nL of a 100 fold concentrated solution of the test compound in DMSO was pipetted into a black low volume 384 well microtiter plate (Greiner Bio-One, Frickenhausen, Germany), 2 μL of a solution of MKNK1 in aqueous assay buffer [50 mM HEPES pH 7.5, 5 mM MgCl2, 1.0 mM dithiothreitol, 0.005% (v/v) Nonidet-P40 (Sigma)] was added and the mixture was incubated for 15 min at 22° C. to allow pre-binding of the test compounds to the enzyme before the start of the kinase reaction. Then the kinase reaction was started by the addition of 3 μL of a solution of adenosine-tri-phosphate (ATP, 3.3 mM=>final conc. in the 5 μL assay volume is 2 mM) and substrate (0.1 μM=>final conc. in the 5 μL assay volume is 0.06 μM) in assay buffer and the resulting mixture was incubated for a reaction time of 30 min at 22° C. The concentration of MKNK1 was adjusted depending of the activity of the enzyme lot and was chosen appropriate to have the assay in the linear range, typical concentrations were in the range of 0.003 μg/mL. The reaction was stopped by the addition of 5 μL of a solution of TR-FRET detection reagents (5 nM streptavidine-XL665 [Cisbio Bioassays, Codolet, France] and 1 nM anti-ribosomal protein S6 (pSer236)-antibody from Invitrogen [#44921G] and 1 nM LANCE EU-W1024 labeled ProteinG [Perkin-Elmer, product no. AD0071]) in an aqueous EDTA-solution (100 mM EDTA, 0.1% (w/v) bovine serum albumin in 50 mM HEPES pH 7.5).
The resulting mixture was incubated for 1 h at 22° C. to allow the formation of complex between the phosphorylated biotinylated peptide and the detection reagents. Subsequently the amount of phosphorylated substrate was evaluated by measurement of the resonance energy transfer from the Eu-chelate to the streptavidine-XL. Therefore, the fluorescence emissions at 620 nm and 665 nm after excitation at 350 nm were measured in a TR-FRET reader, e.g. a Rubystar (BMG Labtechnologies, Offenburg, Germany) or a Viewlux (Perkin-Elmer). The ratio of the emissions at 665 nm and at 622 nm was taken as the measure for the amount of phosphorylated substrate.

T1 sequence (Q9BUB5 1-424 isoform Q9BUB5-2 T344D): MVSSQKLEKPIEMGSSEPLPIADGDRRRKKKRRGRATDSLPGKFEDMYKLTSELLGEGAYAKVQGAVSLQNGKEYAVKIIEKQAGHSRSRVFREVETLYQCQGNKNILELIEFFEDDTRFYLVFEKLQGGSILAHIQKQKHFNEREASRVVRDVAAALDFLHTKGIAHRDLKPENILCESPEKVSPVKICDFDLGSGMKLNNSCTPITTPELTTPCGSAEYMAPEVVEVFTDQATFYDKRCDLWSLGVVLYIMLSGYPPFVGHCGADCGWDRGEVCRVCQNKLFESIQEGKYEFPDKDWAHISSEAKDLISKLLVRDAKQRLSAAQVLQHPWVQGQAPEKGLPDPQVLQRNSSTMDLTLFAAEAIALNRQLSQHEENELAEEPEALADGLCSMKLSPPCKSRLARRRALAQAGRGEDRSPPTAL

Row | Structure (SMILES) | IC50 [nM]
1 | Cc1cc(Nc2ncnc3sc4c(c23)CC[C@H](C(=O)N2CC(N(C)C)C2)C4)c(=O)n2c1C(=O)NC21CCCC1 [Example 40, 6′-{[(7S)-7-{[3-(Dimethylamino)azetidin-1-yl]carbonyl}-5,6,7,8-tetrahydro[1]benzothieno[2,3-d]pyrimidin-4-yl]amino}-8′-methyl-2′H-spiro[cyclopentane-1,3′-imidazo[1,5-a]pyridine]-1′,5′-dione] | 0.3
2 | Cc1cc(Nc2ncnc3sc4c(c23)CC[C@H](C(=O)N2CC[C@H](N(C)C)C2)C4)c(=O)n2c1C(=O)NC21CCCC1 [Example 41, 6′-{[(7S)-7-{[(3S)-3-(Dimethylamino)pyrrolidin-1-yl]carbonyl}-5,6,7,8-tetrahydro[1]benzothieno[2,3-d]pyrimidin-4-yl]amino}-8′-methyl-2′H-spiro[cyclopentane-1,3′-imidazo[1,5-a]pyridine]-1′,5′-dione] | 1.2
3 | Cc1cc(Nc2ncnc3sc4c(c23)CCCC4)c(=O)n2c1C(=O)NC21CCCCC1 [Example 43, 8′-Methyl-6′-(5,6,7,8-tetrahydro[1]benzothieno[2,3-d]pyrimidin-4-ylamino)-2′H-spiro[cyclohexane-1,3′-imidazo[1,5-a]pyridine]-1′,5′-dione] | 9.9
4 | Cc1cc(Nc2ncnc3sc4c(c23)CC[C@H](C(=O)O)C4)c(=O)n2c1C(=O)NC21CSC1 [Example 44, (7S)-4-[(8-Methyl-1,5-dioxo-1,5-dihydro-2H-spiro[imidazo[1,5-a]pyridine-3,3′-thietan]-6-yl)amino]-5,6,7,8-tetrahydro[1]benzothieno[2,3-d]pyrimidine-7-carboxylic acid] | 17.4
5 | Cc1cc(Nc2ncnc3sc4c(c23)CC[C@H](C(=O)N(C)C)C4)c(=O)n2c1C(=O)NC21CSC1 [Example 45, (7S)—N,N-Dimethyl-4-[(8-methyl-1,5-dioxo-1,5-dihydro-2H-spiro[imidazo[1,5-a]pyridine-3,3′-thietan]-6-yl)amino]-5,6,7,8-tetrahydro[1]benzothieno[2,3-d]pyrimidine-7-carboxamide] | 0.6
6 | Cc1cc(Nc2ncnc3sc4c(c23)CC[C@H](C(=O)N2CCC2)C4)c(=O)n2c1C(=O)NC21CSC1 [Example 46, 6-{[(7S)-7-(Azetidin-1-ylcarbonyl)-5,6,7,8-tetrahydro[1]benzothieno[2,3-d]pyrimidin-4-yl]amino}-8-methyl-2H-spiro[imidazo[1,5-a]pyridine-3,3′-thietane]-1,5-dione] | 0.6
7 | Cc1cc(Nc2ncnc3sc4c(c23)CC[C@H](C(=O)N2CC(C#N)C2)C4)c(=O)n2c1C(=O)NC21CSC1 [Example 47, 1-({(7S)-4-[(8-Methyl-1,5-dioxo-1,5-dihydro-2H-spiro[imidazo[1,5-a]pyridine-3,3′-thietan]-6-yl)amino]-5,6,7,8-tetrahydro[1]benzothieno[2,3-d]pyrimidin-7-yl}carbonyl)azetidine-3-carbonitrile] | 0.8
8 | Cc1cc(Nc2ncnc3sc4c(c23)CC[C@H](C(=O)N2CC(N(C)C)C2)C4)c(=O)n2c1C(=O)NC21CSC1 [Example 48, 6-{[(7S)-7-{[3-(Dimethylamino)azetidin-1-yl]carbonyl}-5,6,7,8-tetrahydro[1]benzothieno[2,3-d]pyrimidin-4-yl]amino}-8-methyl-2H-spiro[imidazo[1,5-a]pyridine-3,3′-thietane]-1,5-dione] | 0.4
9 | Cc1cc(Nc2ncnc3sc4c(c23)CC[C@H](C(=O)N2CC[C@H](N(C)C)C2)C4)c(=O)n2c1C(=O)NC21CSC1 [Example 49, 6-{[(7S)-7-{[(3S)-3-(Dimethylamino)pyrrolidin-1-yl]carbonyl}-5,6,7,8-tetrahydro[1]benzothieno[2,3-d]pyrimidin-4-yl]amino}-8-methyl-2H-spiro[imidazo[1,5-a]pyridine-3,3′-thietane]-1,5-dione] | 0.5
10 | Cc1cc(Nc2ncnc3sc4c(c23)CC[C@H](C(=O)N2CCN(C)[C@H](C)C2)C4)c(=O)n2c1C(=O)NC21CSC1 [Example 50, 6-{[(7S)-7-{[(3R)-3,4-dimethylpiperazin-1-yl]carbonyl}-5,6,7,8-tetrahydro[1]benzothieno[2,3-d]pyrimidin-4-yl]amino}-8-methyl-2H-spiro[imidazo[1,5-a]pyridine-3,3′-thietane]-1,5-dione] | 0.3
11 | Cc1cc(Nc2ncnc3sc4c(c23)CC[C@H](C(=O)N2C[C@H]3C[C@@H]2CO3)C4)c(=O)n2c1C(=O)NC21CSC1 [Example 51, 8-Methyl-6-({(7S)-7-[(1R,4R)-2-oxa-5-azabicyclo[2.2.1]hept-5-ylcarbonyl]-5,6,7,8-tetrahydro[1]benzothieno[2,3-d]pyrimidin-4-yl}amino)-2H-spiro[imidazo[1,5-a]pyridine-3,3′-thietane]-1,5-dione] | 0.4
12 | Cc1cc(Nc2ncnc3sc4c(c23)CC[C@H](C(=O)N(C)C)C4)c(=O)n2c1C(=O)NC21CCC(F)(F)CC1 [Example 52, (7S)-4-[(4,4-Difluoro-8′-methyl-1′,5′-dioxo-1′,5′-dihydro-2′H-spiro[cyclohexane-1,3′-imidazo[1,5-a]pyridin]-6′-yl)amino]-N,N-dimethyl-5,6,7,8-tetrahydro[1]benzothieno[2,3-d]pyrimidine-7-carboxamide] | 0.6

More lines, now with the values ahead:

Row | IC50 [nM] | Structure (SMILES)
13 | 3.3 | Cc1cc(Nc2ncnc3sc4c(c23)CC[C@H](C(=O)N2CC(C#N)C2)C4)c(=O)n2c1C(=O)NC21CCCC1 [Example 39, 1-({(7S)-4-[(8′-Methyl-1′,5′-dioxo-1′,5′-dihydro-2′H-spiro[cyclopentane-1,3′-imidazo[1,5-a]pyridin]-6′-yl)amino]-5,6,7,8-tetrahydro[1]benzothieno[2,3-d]pyrimidin-7-yl}carbonyl)azetidine-3-carbonitrile]
14 | 24.5 | Cc1cc(Nc2ncnc3sc4c(c23)CC[C@H](C(=O)O)C4)c(=O)n2c1C(=O)NC21CCC(F)(F)CC1 [Example 42, (7S)-4-[(4,4-Difluoro-8′-methyl-1′,5′-dioxo-1′,5′-dihydro-2′H-spiro[cyclohexane-1,3′-imidazo[1,5-a]pyridin]-6′-yl)amino]-5,6,7,8-tetrahydro[1]benzothieno[2,3-d]pyrimidine-7-carboxylic acid]
15 | 13.5 | Cc1cc(Nc2ncnc3sc4c(c23)CC[C@H](C(=O)N2CCC2)C4)c(=O)n2c1C(=O)NC21CCC(F)(F)CC1 [Example 53, 6′-{[(7S)-7-(Azetidin-1-ylcarbonyl)-5,6,7,8-tetrahydro[1]benzothieno[2,3-d]pyrimidin-4-yl]amino}-4,4-difluoro-8′-methyl-2′H-spiro[cyclohexane-1,3′-imidazo[1,5-a]pyridine]-1′,5′-dione]
16 | 4.4 | Cc1cc(Nc2ncnc3sc4c(c23)CC[C@H](C(=O)N2CC(C#N)C2)C4)c(=O)n2c1C(=O)NC21CCC(F)(F)CC1 [Example 54, 1-({(7S)-4-[(4,4-Difluoro-8′-methyl-1′,5′-dioxo-1′,5′-dihydro-2′H-spiro[cyclohexane-1,3′-imidazo[1,5-a]pyridin]-6′-yl)amino]-5,6,7,8-tetrahydro[1]benzothieno[2,3-d]pyrimidin-7-yl}carbonyl)azetidine-3-carbonitrile]
17 | 0.6 | Cc1cc(Nc2ncnc3sc4c(c23)CC[C@H](C(=O)N2CC(N(C)C)C2)C4)c(=O)n2c1C(=O)NC21CCC(F)(F)CC1 [Example 55, 6′-{[(7S)-7-{[3-(Dimethylamino)azetidin-1-yl]carbonyl}-5,6,7,8-tetrahydro[1]benzothieno[2,3-d]pyrimidin-4-yl]amino}-4,4-difluoro-8′-methyl-2′H-spiro[cyclohexane-1,3′-imidazo[1,5-a]pyridine]-1′,5′-dione]
18 | 2 | Cc1cc(Nc2ncnc3sc4c(c23)CC[C@H](C(=O)N2CC[C@H](N(C)C)C2)C4)c(=O)n2c1C(=O)NC21CCC(F)(F)CC1 [Example 56, 6′-{[(7S)-7-{[(3S)-3-(Dimethylamino)pyrrolidin-1-yl]carbonyl}-5,6,7,8-tetrahydro[1]benzothieno[2,3-d]pyrimidin-4-yl]amino}-4,4-difluoro-8′-methyl-2′H-spiro[cyclohexane-1,3′-imidazo[1,5-a]pyridine]-1′,5′-dione]
